Data published in patent US11279682B2 (H. Lundbeck A/S, priority 2015, dated 2022).
Like-named read-outs stand apart in the source and are kept apart here.

Assays:
[1] = cited from earlier work
[2] = Intrinsic dissolution rate, spinning-disc method; type: physicochemical; conditions: for IDR (mean of 2 determinations (mg/cm2/min)): 50 mM Tris at pH 6.8, 37° C./200 RPM, as free base
Experimental: The intrinsic dissolution rate (IDR) is expressed as mg vortioxetine dissolved per cm^2 surface per min. The intrinsic dissolution rate is measured using the “spinning-disc method” (μDISS Profiler Instrument from Pion Instruments).
In order to define the surface from which the test compound dissolves, miniaturized disks of compacted pure test compound are made (10 mg). The disk holding the test compound is inserted into a Teflon cup containing an imbedded magnet. The cup is inserted into a vial containing 20 ml dissolution medium (37° C./200 RPM). The dissolved test compound is measured by a fibre optic detection system (200-400 nm). The concentration is determined by comparison with a standard solution and the calculated amount of test compound released (as free base) per surface area is plotted versus time. The slope gives the intrinsic dissolution rate. The measurements are performed in duplicate. The dissolution medium was 50 mM Tris at pH 6.8. Vortioxetine HBr β-form is defined in WO 2007/144005 (see e.g. example 4c and 4d).

[3] = Gelling experiments (vortioxetine pyroglutamate, a salt and water in a vial, left upside down); type: physicochemical
Text: In one embodiment, the invention relates to a gel comprising vortioxetine pyroglutamate, a salt and water. […] A gel of the present invention is particularly useful for oral administration because it is easily swallowed compared to other oral administration forms, in particular tablets and capsules. A gel of the present invention may comprise other ingredients known in pharmaceutical science, in particular taste modifiers, as discussed above. In the present context and in line with the USP definition of a gel, a gel is intended to indicate a semisolid system consisting of either small […] or large organic molecules interpenetrated by a liquid. A gel thus presents as a coherent, viscous, plastic or non-disintegrating phase. […] In one embodiment, said gel comprises 0.1 M-1 M salt, such as 0.1 M-0.5 M salt, such as 0.1 M-0.3 M salt. […] The amounts of vortioxetine pyroglutamate are indicated as free base. It is the experience of the inventors that the volume of the aqueous phase and the final gel are roughly similar when the gel comprises a therapeutically relevant dose in a therapeutically relevant volume.
The gelling experiments were carried out in a 4 ml cylindrical vial with an inner diameter of approximately 1 cm.

[4] = Dynamic Vapour Sorption (hygroscopicity); type: physicochemical; conditions: for Water absorbed (DVS, change in mass): humidity up to / at 95% relative humidity, 25° C.
Experimental: Dynamic Vapour Sorption spectra were obtained on equipment from SMS Systems (DVS Advantage). The change in mass (relative to the dry state) of a sample (10-20 mg) was determined as a function of the relative humidity (P/P0) at 25° C.

[5] = known salts, values from the cited reference
[6] = Example 8: 7.6 mg, sodium bromide in water 0.18 M, 1.0 mL, 4 mL vial
[7] = Example 2: 10.2 mg, potassium bromide in water 0.23 M, 1.0 mL, 4 mL vial
[8] = Example 1: 5.5 mg, potassium bromide in water 0.17 M, 1.0 mL, 4 mL vial
[9] = Example 3: 6.2 mg, sodium bromide total 0.26 M, 1.0 mL, 4 mL vial
[10] = Example 4: 10.7 mg, sodium bromide total 0.20 M, 1.0 mL, 4 mL vial
[11] = Example 5: 0.80 g, sodium chloride in water 0.20 M, 100 mL, 250 mL round-bottomed flask
[12] = Example 6: 8.0 mg, sodium chloride total 0.26 M, 1.0 mL, 4 mL vial
[13] = Example 7: 11.2 mg, sodium chloride total […], 1.0 mL, 4 mL vial
[14] = Example 9: 14 mg, sodium chloride 26 mg and water 2.0 mL, 4 mL vial

Br.Cc1ccc(Sc2ccccc2N2CCNCC2)c(C)c1
Solubility ([1]; (Calculated), WO 2014/044721): 3 to 3.8 mg/mL

Br.Cc1ccc(Sc2ccccc2N2CCNCC2)c(C)c1 [HBr β-form, reference compound]
IDR (mean of 2 determinations (mg/cm2/min)) [2]: 0.10 mg/cm2/min | Solubility [1, 5]: 1.2 mg/mL

Cc1ccc(Sc2ccccc2N2CCNCC2)c(C)c1.O=C1CCC(C(=O)O)N1 [vortioxetine (L)-pyroglutamate, Vortioxetine (L)-pyroglutamate]
Standing time until a clear gel was formed [3, 6]: less than 1 minute | Time vial left upside down with gel properties maintained [3, 6]: more than 30 minutes | Water absorbed (DVS, change in mass) [4]: 2.7% | IDR (mean of 2 determinations (mg/cm2/min)) [2]: 14.9 mg/cm2/min

Cc1ccc(Sc2ccccc2N2CCNCC2)c(C)c1.O=C1CCC(C(=O)O)N1 [vortioxetine (DL)-pyroglutamate α-form]
Standing time until a clear gel was formed [3, 7]: less than 1 minute | Time vial left upside down with gel properties maintained [3, 7]: more than 1 hour | Hygroscopicity (DVS) ([4]; DVS spectrum up to 95% relative humidity): not hygroscopic | Water absorbed (DVS, change in mass) ([4]; listed as vortioxetine (DL)pyroglutamate α-form): Less than 0.3%

CC(O)C(=O)O.Cc1ccc(Sc2ccccc2N2CCNCC2)c(C)c1 [DL-lactate β-form]
Solubility [1, 5]: 8 mg/mL

Cc1ccc(Sc2ccccc2N2CCNCC2)c(C)c1.Cl [HCl]
Solubility [1, 5]: 3 mg/mL

Cc1ccc(Sc2ccccc2N2CCNCC2)c(C)c1.O=C1CCC(C(=O)O)N1 [vortioxetine pyroglutamate]
Dissolution rate compared to the HBr salt ([2]; Example 18): markedly higher dissolution rate

Phosphate
Solubility [1, 5]: 1 mg/mL

Cc1ccc(Sc2ccccc2N2CCNCC2)c(C)c1.O.O=C1CCC(C(=O)O)N1 [vortioxetine (DL)-pyroglutamate MH]
Standing time until a clear gel was formed [3, 8]: less than 1 minute | Time vial left upside down with gel properties maintained [3, 8]: more than 1 hour | Standing time until a clear gel was formed [3, 9]: less than 1 minute | Time vial left upside down with gel properties maintained [3, 9]: more than 30 minutes | Standing time until a clear gel was formed [3, 10]: less than 1 minute | Time vial left upside down with gel properties maintained [3, 10]: more than 1 hour | Standing time until a clear gel was formed [3, 11]: 2 min | Time flask left upside down with gel properties maintained [3, 11]: more than 30 minutes | Standing time until a clear gel was formed [3, 12]: 6 min | Time vial left upside down with gel properties maintained [3, 12]: more than 1 hour | Standing time until a clear gel was formed [3, 13]: 5 min | Time vial left upside down with gel properties maintained [3, 13]: more than 30 minutes | Standing time until gel was formed [3, 14]: less than 1 minute | Time vial left upside down with gel properties maintained [3, 14]: more than 10 minutes | Hygroscopicity (DVS) ([4]; at 95% relative humidity): hygroscopic | Water absorbed (DVS, change in mass) [4]: more than 10% | Hygroscopicity (DVS) ([4]; up to 80% relative humidity at 25° C.): not hygroscopic

CC(O)C(=O)O.Cc1ccc(Sc2ccccc2N2CCNCC2)c(C)c1.O [L-lactate Monohydrate2]
Solubility [1, 5]: 26 mg/mL

Maleate
Solubility [1, 5]: 1 mg/mL

O=C1CCC(C(=O)O)N1 (racemic) [DL-Pyroglutamate]
IDR (mean of 2 determinations (mg/cm2/min)) [2]: 14.7 mg/cm2/min
